Data from publication PMC10006169, “A phase I trial of LXS196, a protein kinase C (PKC) inhibitor, for metastatic uveal melanoma” (British Journal of Cancer, 2023).
Read-outs that look alike come from different tables or passages of the source.

Experiment: Plasma pharmacokinetics (LC-MS/MS)
Assay type: in vivo, human
Conditions: for AUC(0-inf) / half-life / AUC(0-t) / Cmax: human, plasma, oral, 100 mg, C1D1, 100 mg QD
Method: In the dose escalation part of the study, PK samples were collected at various pre- and post-dose time points on C1D1, D2, D3, D15 and D16. Drug concentrations were assessed using a validated liquid chromatography-tandem mass spectrometry assay.

In the case of `CC1(N)CCN(c2cccnc2NC(=O)c2nc(-c3ncccc3C(F)(F)F)cnc2N)CC1` [LXS196], the “Increase in exposure (AUC0–t and Cmax) with dose” value (C1D1 and D15, QD and BID) was “under-proportional”, the “Racc (accumulation ratio), Geo-mean” value (C1D15, 100 mg QD, n=2) was 1.2 and the “Racc (accumulation ratio), Mean (SD)” value (C1D15, 100 mg QD, n=2) was 1.27 (0.570). For the same compound, the “Racc (accumulation ratio), Median (Min, max)” value (C1D15, 100 mg QD, n=2) was 1.27 (0.867, 1.67), the “Cmin, Geo-mean” value (C1D15, 100 mg QD, n=3) was 0.137 µg/mL and the “Cmin, Mean (SD)” value (C1D15, 100 mg QD, n=3) was 144 (58.0) ng/mL. The “Cmin, Geo-mean” value (C1D15, 200 mg BID, n=5) was 0.705 µg/mL, the “Cmin, Mean (SD)” value (C1D15, 200 mg BID, n=5) was 787 (376) ng/mL and the “Racc (accumulation ratio), Geo-mean” value (C1D15, 200 mg BID, n=5) was 0.989. For the same compound, the “Racc (accumulation ratio), Mean (SD)” value (C1D15, 200 mg BID, n=5) was 1.11 (0.611), the “Racc (accumulation ratio), Median (Min, max)” value (C1D15, 200 mg BID, n=5) was 0.852 (0.539, 2.00) and the “Racc (accumulation ratio), Geo-mean” value (C1D15, 200 mg QD, n=2) was 0.743. For the same compound, the “Racc (accumulation ratio), Mean (SD)” value (C1D15, 200 mg QD, n=2) was 0.750 (0.145), the “Racc (accumulation ratio), Median (Min, max)” value (C1D15, 200 mg QD, n=2) was 0.75 (0.647, 0.852) and the “Cmin, Geo-mean” value (C1D15, 200 mg QD, n=3) was 0.134 µg/mL. The “Cmin, Mean (SD)” value (C1D15, 200 mg QD, n=3) was 143 (59.2) ng/mL, the “Racc (accumulation ratio), Geo-mean” value (C1D15, 300 mg BID, n=12) was 1.09 and the “Racc (accumulation ratio), Mean (SD)” value (C1D15, 300 mg BID, n=12) was 1.15 (0.403). The “Racc (accumulation ratio), Median (Min, max)” value (C1D15, 300 mg BID, n=12) was 1.07 (0.549, 1.98), the “Cmin, Geo-mean” value (C1D15, 300 mg BID, n=17) was 0.912 µg/mL and the “Cmin, Mean (SD)” value (C1D15, 300 mg BID, n=17) was 1040 (462) ng/mL. For the same compound, the “Cmin, Median (Min, max)” value (C1D15, 300 mg BID, n=17) was 1070 (155, 2100) ng/mL, the “Racc (accumulation ratio), Geo-mean” value (C1D15, 300 mg QD, n=13) was 0.895 and the “Racc (accumulation ratio), Mean (SD)” value (C1D15, 300 mg QD, n=13) was 0.934 (0.307). For the same compound, the “Racc (accumulation ratio), Median (Min, max)” value (C1D15, 300 mg QD, n=13) was 0.838 (0.577, 1.72), the “Cmin, Geo-mean” value (C1D15, 300 mg QD, n=14) was 0.344 µg/mL and the “Cmin, Mean (SD)” value (C1D15, 300 mg QD, n=14) was 426 (319) ng/mL. For the same compound, the “Racc (accumulation ratio), Geo-mean” value (C1D15, 400 mg BID, n=3) was 0.721, the “Racc (accumulation ratio), Mean (SD)” value (C1D15, 400 mg BID, n=3) was 0.738 (0.204) and the “Racc (accumulation ratio), Median (Min, max)” value (C1D15, 400 mg BID, n=3) was 0.643 (0.599, 0.972). For the same compound, the “Cmin, Geo-mean” value (C1D15, 400 mg BID, n=4) was 0.627 µg/mL, the “Cmin, Mean (SD)” value (C1D15, 400 mg BID, n=4) was 647 (194) ng/mL and the “Cmin, Median (Min, max)” value (C1D15, 400 mg BID, n=4) was 608 (464, 909) ng/mL. For the same compound, the “Racc (accumulation ratio), Geo-mean” value (C1D15, 500 mg QD, n=8) was 0.767, the “Racc (accumulation ratio), Mean (SD)” value (C1D15, 500 mg QD, n=8) was 0.793 (0.214) and the “Racc (accumulation ratio), Median (Min, max)” value (C1D15, 500 mg QD, n=8) was 0.768 (0.484, 1.11). The “Cmin, Geo-mean” value (C1D15, 500 mg QD, n=9) was 0.622 µg/mL, the “Cmin, Mean (SD)” value (C1D15, 500 mg QD, n=9) was 660 (234) ng/mL and the “Cmin, Geo-mean” value (C1D15, 1000 mg QD, n=2) was 0.673 µg/mL. For the same compound, the “Cmin, Mean (SD)” value (C1D15, 1000 mg QD, n=2) was 674 (10.6) ng/mL, the “Racc (accumulation ratio), Geo-mean” value (C1D15, 1000 mg QD, n=2) was 0.709 and the “Racc (accumulation ratio), Mean (SD)” value (C1D15, 1000 mg QD, n=2) was 0.718 (0.161). The “Racc (accumulation ratio), Median (Min, max)” value (C1D15, 1000 mg QD, n=2) was 0.718 (0.604, 0.832), the “PK variability (CV% for Cmax and AUC0–t)” value (between-patient) was “moderate” and the AUC(0-inf) (n=2, read-out: AUCinf, Geo-mean) was 8.56 µg·h/mL. For the same compound, the AUC(0-inf) (n=2, read-out: AUCinf, Mean (SD)) was 8.64 µg·h/mL, the AUC(0-inf) (n=2, read-out: AUCinf, Median (Min, max)) was 8.64 µg·h/mL and the half-life (n=2, read-out: T1/2, Geo-mean (converted)) was 8.43 h. The half-life (n=2, read-out: T1/2, Mean (SD) (converted)) was 8.49 h, the half-life (n=2, read-out: T1/2, Median (Min, max) (converted)) was 8.49 h and the AUC(0-t) (n=3, read-out: AUC0-t, Geo-mean) was 8.44 µg·h/mL. For the same compound, the AUC(0-t) (n=3, read-out: AUC0-t, Mean (SD)) was 8.67 µg·h/mL, the AUC(0-t) (n=3, read-out: AUC0-t, Median (Min, max)) was 8.02 µg·h/mL and the Cmax (n=3, read-out: Cmax, Geo-mean) was 0.774 µg/mL. It also gave a Cmax (n=3, read-out: Cmax, Mean (SD)) of 0.776 µg/mL and a Cmax (n=3, read-out: Cmax, Median (Min, max)) of 0.811 µg/mL.
